According to the supplement of paper PMC11208160:
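Also: IS621 bridge recombinase in Escherichia coli cells against a fixed T5 target plasmid.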

Assay: recombinant UMI read abundance after kanamycin selection (control-corrected) (log10(CPM+1)); higher = more efficient recombination; extreme values may be limits of the assay; sequences stand for … in AGTGCAGAGAAAATCGGCCAGTTTTCTCTGCCTGCAGTCCGCATGCCGTGGGACCCCTTGGGTTCTAACCTGTTGCCTAGATTTATGCAGCGGACTGCCTTTCTCCCAAAGTGATAAACCGG…AGGTTGGTTTCACT; site = the 11-nt donor
How it was run: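 Reported values are log10(CPM+1) from a pooled Escherichia coli screen of donor and donor-binding-loop pairs for the IS621 bridge recombinase. Selection used IPTG (0.07 mM) plus kanamycin, against unselected plating, each in two replicates. Recombinant UMIs were amplified across the donor–target junction, sequenced, converted to CPM, averaged over replicates and scaled by control-derived factors.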
In the case of “TGTAGCTCATGGACCGGTTTTCCCGGTAATCCGTATTTGGG (site TGTAGCTCTCC)”, the “recombinant UMI read abundance (log10)” value is reported as 0.0269.
For “TGTAGGACATGGACCGGTTTTCCCGGTAATCCGTATTTGAA (site TGTAGGACTTT)”, the “recombinant UMI read abundance (log10)” value was 0.373.
With “TGTCAAACATGGACCGGTTTTCCCGGTAATCCGTATTTGGG (site TGTCAAACTCC)” the “recombinant UMI read abundance (log10)” value was 0.00984.
In the case of “TGTCAGACATGGACCGGTTTTCCCGGTAATCCGTATTTGTG (site TGTCAGACTCA)”, the “recombinant UMI read abundance (log10)” value is reported as 0.0321.
In the case of “TGTCCTACATGGACCGGTTTTCCCGGTAATCCGTATTTGGA (site TGTCCTACTTC)”, the “recombinant UMI read abundance (log10)” value is reported as 0.0197.
For “TGTCCTGCATGGACCGGTTTTCCCGGTAATCCGTATTTGTT (site TGTCCTGCTAA)”, the “recombinant UMI read abundance (log10)” value was 0.011.
For “TGTCGCGCATGGACCGGTTTTCCCGGTAATCCGTATTTGCA (site TGTCGCGCTTG)”, the “recombinant UMI read abundance (log10)” value was 0.897.
With “TGTCGGACATGGACCGGTTTTCCCGGTAATCCGTATTTGCG (site TGTCGGACTCG)” the “recombinant UMI read abundance (log10)” value was 1.4.
For “TGTGCACCATGGACCGGTTTTCCCGGTAATCCGTATTTGAC (site TGTACACCTGT)”, the “recombinant UMI read abundance (log10)” value was 0.
With “TGTGCACCATGGACCGGTTTTCCCGGTAATCCGTATTTGAC (site TGTCCACCTGT)” the “recombinant UMI read abundance (log10)” value was 0.0317.
In the case of “TGTGCACCATGGACCGGTTTTCCCGGTAATCCGTATTTGAC (site TGTGCACCTGT)”, the “recombinant UMI read abundance (log10)” value is reported as 0.
With “TGTGCACCATGGACCGGTTTTCCCGGTAATCCGTATTTGAC (site TGTTCACCTGT)” the “recombinant UMI read abundance (log10)” value was 0.
For “TGTGCCCCATGGACCGGTTTTCCCGGTAATCCGTATTTGTA (site TGTACCCCTTA)”, the “recombinant UMI read abundance (log10)” value was 0.126.
For “TGTGCCCCATGGACCGGTTTTCCCGGTAATCCGTATTTGTA (site TGTCCCCCTTA)”, the “recombinant UMI read abundance (log10)” value was 0.0113.
For “TGTGCCCCATGGACCGGTTTTCCCGGTAATCCGTATTTGTA (site TGTGCCCCTTA)”, the “recombinant UMI read abundance (log10)” value was 0.0922.
For “TGTGCCCCATGGACCGGTTTTCCCGGTAATCCGTATTTGTA (site TGTTCCCCTTA)”, the “recombinant UMI read abundance (log10)” value was 0.0156.
In the case of “TGTGCTGCATGGACCGGTTTTCCCGGTAATCCGTATTTGAA (site TGTGCTGCTTT)”, the “recombinant UMI read abundance (log10)” value is reported as 0.011.
With “TGTGGAACATGGACCGGTTTTCCCGGTAATCCGTATTTGTT (site AGTGGAACTAA)” the “recombinant UMI read abundance (log10)” value was 0.0127.
For “TGTGGAACATGGACCGGTTTTCCCGGTAATCCGTATTTGTT (site CGTGGAACTAA)”, the “recombinant UMI read abundance (log10)” value was 0.0659.
With “TGTGGAACATGGACCGGTTTTCCCGGTAATCCGTATTTGTT (site GGTGGAACTAA)” the “recombinant UMI read abundance (log10)” value was 0.
With “TGTGGAACATGGACCGGTTTTCCCGGTAATCCGTATTTGTT (site TGTGGAACTAA)” the “recombinant UMI read abundance (log10)” value was 0.511.
With “TGTGTAACATGGACCGGTTTTCCCGGTAATCCGTATTTGAC (site TGTGTAACTGT)” the “recombinant UMI read abundance (log10)” value was 0.
For “TGTTAGGCATGGACCGGTTTTCCCGGTAATCCGTATTTGGT (site TGATAGGCTAC)”, the “recombinant UMI read abundance (log10)” value was 0.0087.
In the case of “TGTTAGGCATGGACCGGTTTTCCCGGTAATCCGTATTTGGT (site TGCTAGGCTAC)”, the “recombinant UMI read abundance (log10)” value is reported as 0.304.
For “TGTTAGGCATGGACCGGTTTTCCCGGTAATCCGTATTTGGT (site TGGTAGGCTAC)”, the “recombinant UMI read abundance (log10)” value was 0.017.
For “TGTTAGGCATGGACCGGTTTTCCCGGTAATCCGTATTTGGT (site TGTTAGGCTAC)”, the “recombinant UMI read abundance (log10)” value was 0.273.
With “TGTTCACCATGGACCGGTTTTCCCGGTAATCCGTATTTGAC (site TGTACACCTGT)” the “recombinant UMI read abundance (log10)” value was 0.
For “TGTTCACCATGGACCGGTTTTCCCGGTAATCCGTATTTGAC (site TGTCCACCTGT)”, the “recombinant UMI read abundance (log10)” value was 0.
With “TGTTCACCATGGACCGGTTTTCCCGGTAATCCGTATTTGAC (site TGTGCACCTGT)” the “recombinant UMI read abundance (log10)” value was 0.
